Experimental data: patent US20250145633A1, “SUBSTITUTED FURANOPYRIMIDINE COMPOUNDS AS PDE1 INHIBITORS” (Dart NeuroScience, LLC, priority 2017, published 2025)

These molecules were tested against human PDE1B enzyme (Homo sapiens (Human), UniProt Q01064) (assay: IMAP TR-FRET PDE1B enzymatic assay). Conditions: negative log of half-maximal molar inhibitory concentration; 200 nM FAM-cAMP; values given as bins.
Assay type: biochemical
Experimental: PDE1B inhibition was determined by an IMAP TR-FRET assay. The IMAP TR-FRET PDE assay was optimized for concentration of enzyme, Calmodulin, cAMP or cGMP substrate, DMSO tolerance, and incubation time.
Into each well of a solid white 1536 well plate (Corning) was dispensed 250 pg full-length recombinant NH-terminal GST tagged human PDE1B enzyme (BPS Bioscience Cat #60011, San Diego, CA) in 2.5 μL IMAP BSA reaction buffer (Molecular Devices, Sunnyvale, CA) containing 10 U/ml Calmodulin and 2.5 mM CaCl2) (Sigma Aldrich.) After a brief centrifugation, 30 nL of compound was added by transfer from 1 mM stock in DMSO using a Kalypsys 1536 Pintool. Plates were incubated for 5 minutes at room temperature before dispensing 1.5 μL of 533 nM 5-carboxy fluorescein (FAM)-labeled cAMP (Molecular Devices, Sunnyvale, CA) for a final concentration of 200 nM. After a brief centrifugation, the plates were incubated for 30 minutes at room temperature. The assay was terminated by adding 5 μL IMAP binding reagent/Tb complex (Molecular Devices, Sunnyvale, CA) to each well.
Plates were incubated for 1 hour at room temperature and were read on a Viewlux multimode plate reader (Perkin Elmer). The instrument was set to excite using the DUG11 filter and measure using 490/10 nm and 520/10 nm filters. Ratios of acceptor and donor were then calculated.
For IC50 calculations, the values of % efficacy versus a series of compound concentrations were then plotted using non-linear regression analysis of sigmoidal dose-response curves generated with the equation Y=[B+(T−B)]/[1+10((Log EC50−X)×Hill Slope)], where Y=percent activity, B=minimum percent efficacy, T=maximum percent efficacy, X=logarithm of compound and Hill Slope=slope factor or Hill coefficient. The IC50 value was determined by the concentration causing a half-maximal percent efficacy.

Structure (SMILES)	PDE1b (pIC50)
COc1ccc(C(C)NC(=O)c2c(C)oc3ncnc(NC4(C)CC4)c23)cc1F (stereo not drawn) [Example 304, N-[1-(3-Fluoro-4-methoxyphenyl)ethyl]-6-methyl-4-[(1-methylcyclopropyl)amino]furo[2,3-d]pyrimidine-5-carboxamide]	>8
Cc1oc2ncnc(NC3(C)CC3)c2c1C(=O)NCc1cc(C#N)ccc1F [Example 533, N-[(5-Cyano-2-fluorophenyl)methyl]-6-methyl-4-[(1-methylcyclopropyl)amino]furo[2,3-d]pyrimidine-5-carboxamide]	>8
Cc1cccc(CNC(=O)c2c(C)oc3ncnc(NC4(C)CC4)c23)c1C [Example 238, N-[(2,3-Dimethylphenyl)methyl]-6-methyl-4-[(1-methylcyclopropyl)amino]furo[2,3-d]pyrimidine-5-carboxamide]	>8
COc1ccc(CNC(=O)c2c(C)oc3ncnc(NC4(C)CC4)c23)cc1F [Example 483, N-[(3-Fluoro-4-methoxyphenyl)methyl]-6-methyl-4-[(1-methylcyclopropyl)amino]furo[2,3-d]pyrimidine-5-carboxamide]	>8

Same assay, conditions: negative log of half-maximal molar inhibitory concentration; 200 nM FAM-cAMP; values given as bins; read-out: PDE1b (pIC50) (converted)

Structure (SMILES)	IC50
Cc1oc2ncnc(NC3(C)CC3)c2c1C(=O)N1CCn2cncc2C1 [Example 640, 5-{5H,6H,7H,8H-Imidazo[1,5-a]pyrazine-7-carbonyl}-6-methyl-N-(1-methylcyclopropyl)furo[2,3-d]pyrimidin-4-amine]	100 to 1000 nM
Cc1oc2ncnc(NC3(C)CC3)c2c1C(=O)N1CCC(c2ncc(OCF)cn2)CC1 [Example 770, 5-{4-[5-(Fluoromethoxy)pyrimidin-2-yl]piperidine-1-carbonyl}-6-methyl-N-(1-methylcyclopropyl)furo[2,3-d]pyrimidin-4-amine]	10 to 100 nM
Cc1oc2ncnc(NC3(C)CC3)c2c1C(=O)N1CCc2c(nc(-c3ccc(F)cc3)[nH]c2=O)C1 [Example 424, 2-(4-Fluorophenyl)-7-{6-methyl-4-[(1-methylcyclopropyl)amino]furo[2,3-d]pyrimidine-5-carbonyl}-3H,4H,5H,6H,7H,8H-pyrido[3,4-d]pyrimidin-4-one]	10 to 100 nM
Cc1oc2ncnc(NC3(C)CC3)c2c1C(=O)NC1CC(c2ccc(F)cc2)C1 (stereo not drawn) [Example 151, N-[3-(4-Fluorophenyl)cyclobutyl]-6-methyl-4-[(1-methylcyclopropyl)amino]furo[2,3-d]pyrimidine-5-carboxamide]	10 to 100 nM
Cc1oc2ncnc(NC3(C)CC3)c2c1C(=O)N(C)CCc1nc2cc(F)ccc2[nH]1 [Example 583, N-[2-(5-Fluoro-1H-1,3-benzodiazol-2-yl)ethyl]-N,6-dimethyl-4-[(1-methylcyclopropyl)amino]furo[2,3-d]pyrimidine-5-carboxamide]	100 to 1000 nM
Cc1oc2ncnc(NC3(C)CC3)c2c1C(=O)NC1CCOCC1 [Example 108, 6-Methyl-4-[(1-methylcyclopropyl)amino]-N-(oxan-4-yl)furo[2,3-d]pyrimidine-5-carboxamide]	10 to 100 nM
Cc1oc2ncnc(NC3(C)CC3)c2c1C(=O)NCc1ccc(N2CCOCC2)cc1 [Example 184, 6-Methyl-4-[(1-methylcyclopropyl)amino]-N-{[4-(morpholin-4-yl)phenyl]methyl}furo[2,3-d]pyrimidine-5-carboxamide]	10 to 100 nM
Cc1oc2ncnc(NC3(C)CC3)c2c1C(=O)NC(C)c1ncco1 (stereo not drawn) [Example 749, 6-Methyl-4-[(1-methylcyclopropyl)amino]-N-[1-(1,3-oxazol-2-yl)ethyl]furo[2,3-d]pyrimidine-5-carboxamide]	100 to 1000 nM
Cc1oc2ncnc(NC3(C)CC3)c2c1C(=O)NCCCc1nc2cc(F)ccc2[nH]1 [Example 568, N-[3-(5-Fluoro-1H-1,3-benzodiazol-2-yl)propyl]-6-methyl-4-[(1-methylcyclopropyl)amino]furo[2,3-d]pyrimidine-5-carboxamide]	10 to 100 nM
COc1cc(CN(C(=O)c2c(C)oc3ncnc(NC4(C)CC4)c23)C2CC2)ncn1 [Example 28, N-Cyclopropyl-N-[(6-methoxypyrimidin-4-yl)methyl]-6-methyl-4-[(1-methylcyclopropyl)amino]furo[2,3-d]pyrimidine-5-carboxamide]	10 to 100 nM
Cc1oc2ncnc(NC3(C)CC3)c2c1C(=O)NCc1ccc(C#N)cc1 [Example 52, N-[(4-Cyanophenyl)methyl]-6-methyl-4-[(1-methylcyclopropyl)amino]furo[2,3-d]pyrimidine-5-carboxamide]	10 to 100 nM
Cc1oc2ncnc(NC3(C)CC3)c2c1C(=O)NC1CCCC1 [Example 165, N-Cyclopentyl-6-methyl-4-[(1-methylcyclopropyl)amino]furo[2,3-d]pyrimidine-5-carboxamide]	10 to 100 nM
Cc1oc2ncnc(NC3(C)CC3)c2c1C(=O)NC(C)c1ncc(F)cn1 (stereo in doubt) [Example 518, N-[(1S)-1-(5-Fluoropyrimidin-2-yl)ethyl]-6-methyl-4-[(1-methylcyclopropyl)amino]furo[2,3-d]pyrimidine-5-carboxamide]	100 to 1000 nM
Cc1oc2ncnc(NC3(C)CC3)c2c1C(=O)N1CCc2c(ncnc2C2CC2)C1 [Example 805, 5-{4-Cyclopropyl-5H,6H,7H,8H-pyrido[3,4-d]pyrimidine-7-carbonyl}-6-methyl-N-(1-methylcyclopropyl)furo[2,3-d]pyrimidin-4-amine]	10 to 100 nM
COc1ccccc1C(C)NC(=O)c1c(C)oc2ncnc(NC3(C)CC3)c12 (stereo in doubt) [Example 482, N-[(1S)-1-(2-Methoxyphenyl)ethyl]-6-methyl-4-[(1-methylcyclopropyl)amino]furo[2,3-d]pyrimidine-5-carboxamide]	10 to 100 nM
Cc1oc2ncnc(NC3(C)CC3)c2c1C(=O)N1CCOC(c2cccnc2)C1 (stereo not drawn) [Example 120, 6-Methyl-N-(1-methylcyclopropyl)-5-[2-(pyridin-3-yl)morpholine-4-carbonyl]furo[2,3-d]pyrimidin-4-amine]	100 to 1000 nM
Cc1oc2ncnc(NC3(C)CC3)c2c1C(=O)NCc1cccs1 [Example 190, 6-Methyl-4-[(1-methylcyclopropyl)amino]-N-(thiophen-2-ylmethyl)furo[2,3-d]pyrimidine-5-carboxamide]	10 to 100 nM
Cc1oc2ncnc(NC3(C)CC3)c2c1C(=O)N1CCc2ncccc2C1 [Example 631, 6-Methyl-N-(1-methylcyclopropyl)-5-(5,6,7,8-tetrahydro-1,6-naphthyridine-6-carbonyl)furo[2,3-d]pyrimidin-4-amine]	100 to 1000 nM
Cc1oc2ncnc(NC3(C)CC3)c2c1C(=O)N1CCCN(c2ccccc2)CC1 [Example 157, 6-Methyl-N-(1-methylcyclopropyl)-5-(4-phenyl-1,4-diazepane-1-carbonyl)furo[2,3-d]pyrimidin-4-amine]	100 to 1000 nM
C#CC(C)(C)NC(=O)c1c(C)oc2ncnc(NC3(C)CC3)c12 [Example 520, 6-Methyl-N-(2-methylbut-3-yn-2-yl)-4-[(1-methylcyclopropyl)amino]furo[2,3-d]pyrimidine-5-carboxamide]	10 to 100 nM
COCCN1CCN(C(=O)c2c(C)oc3ncnc(NC4(C)CC4)c23)CC1 [Example 260, 5-[4-(2-Methoxyethyl)piperazine-1-carbonyl]-6-methyl-N-(1-methylcyclopropyl)furo[2,3-d]pyrimidin-4-amine]	100 to 1000 nM
Cc1oc2ncnc(NC3(C)CC3)c2c1C(=O)N[C@H]1C[C@@H](F)C1 [Example 127, 6-Methyl-4-[(1-methylcyclopropyl)amino]-N-[(1S,3S)-3-fluorocyclobutyl]furo[2,3-d]pyrimidine-5-carboxamide]	100 to 1000 nM
Cc1cn2c(n1)CN(C(=O)c1c(C)oc3ncnc(NC4(C)CC4)c13)CC2 [Example 633, 6-Methyl-5-{2-methyl-5H,6H,7H,8H-imidazo[1,2-a]pyrazine-7-carbonyl}-N-(1-methylcyclopropyl)furo[2,3-d]pyrimidin-4-amine]	100 to 1000 nM
Cc1ccnc(CNC(=O)c2c(C)oc3ncnc(NC4(C)CC4)c23)n1 [Example 458, 6-Methyl-4-[(1-methylcyclopropyl)amino]-N-[(4-methylpyrimidin-2-yl)methyl]furo[2,3-d]pyrimidine-5-carboxamide]	10 to 100 nM
Cc1oc2ncnc(NC3(C)CC3)c2c1C(=O)N1CCc2cnc(Cl)nc2C1 [Example 690, 5-{2-Chloro-5H,6H,7H,8H-pyrido[3,4-d]pyrimidine-7-carbonyl}-6-methyl-N-(1-methylcyclopropyl)furo[2,3-d]pyrimidin-4-amine]	10 to 100 nM
Cc1nc(CNC(=O)c2c(C)oc3ncnc(NC4(C)CC4)c23)cs1 [Example 97, 6-M ethyl-N-[(2-methyl-1,3-thiazol-4-yl)methyl]-4-[(1-methylcyclopropyl)amino]furo[2,3-d]pyrimidine-5-carboxamide]	10 to 100 nM
